Data as given in patent publication US12662707B2, “MYC amplification drives resistance to pan-RAS inhibitors in pancreatic cancer” (The Trustees of Columbia University in the City of New York, priority 2024, dated 2026).

Columns and labels:
[1] = test system: RAS/MAPK pathway (pERK) in murine PDAC cell lines; test: Western blot of pERK, murine PDAC cell lines; assay type: cell-based; settings: 1-100 nM, 2 hours
Protocol: (§1) Cells were seeded at 7.5×10^5-4×10^6 cells per well in 6-well plates or 100 mm dishes in growth medium. After overnight incubation, indicated compound (RMC-7977, IAG933 or DMSO (0.1% v/v)) were added and incubated for the indicated time points. Cells were washed twice with ice-cold PBS and lysed with NP-40 lysis buffer (Thermo Fisher Scientific, J60766), MSD Tris Lysis Buffer (MSD, R60TX-2), RIPA buffer (50 mM TRIS-HCl, pH 7.5, 150 mM NaCl, 1% NP-40, 0.5% sodium deoxycholate, 0.1% SDS) or a lysis buffer containing 1% Triton X-100, 20 mM Tris-HCl, 150 mM NaCl, and 1 mM EDTA. All lysis buffers were supplemented with protease and phosphatase inhibitors. Lysates were scraped and collected before centrifugation at 21,000×g for 10 minutes at 4° C. The protein-containing supernatants were quantified by BCA assay (Pierce, 23225) and equal quantities of protein were denatured with LDS and reducing agent at 95° C. Samples were resolved on 12% or 4-12% Bis-Tris polyacrylamide gels, then transferred to a nitrocellulose or PVDF membrane using the iBlot 2.0 system or wet transfer. Membranes were blocked in Intercept TBS buffer (LiCor, 927-60001) or 3-5% milk before probing with primary antibodies overnight at 4° C. Secondary antibodies were added as appropriate, and the membranes were imaged on a LiCor Odyssey imager. […]

[2] = test system: murine Dusp6 mRNA in normal colon and skin; test: PK/PD in normal colon and skin of CDX tumor-bearing mice (Dusp6 qRT-PCR); assay type: in vivo, mouse
Protocol: Tumor-bearing animals were randomized and assigned into groups (n=3-10/group). Vehicle or RMC-7977 was administered via oral gavage daily at 10 mg/kg and animals were treated for 21-28 days. Studies were terminated early if tumor burden reached humane endpoint. Body weights were collected twice a week during the study. Means±s.e.m were plotted in the waterfall plots. For the single-dose pharmacokinetic/pharmacodynamic (PK/PD) study, mice were randomized and assigned into groups (n=3-6/dose/timepoint). A single dose of RMC-7977 was administered orally at 10 mg/kg, 25 mg/kg and 50 mg/kg. […]
Whole blood, tumor, colon and skin tissue concentrations of RMC-7977 were determined using liquid chromatography-tandem mass spectrometry (LC-MS/MS) methods. […] After thorough mixing and centrifugation, the supernatant was directly analyzed on a Sciex 6500+ triple quadrupole mass spectrometer equipped with an ACQUITY or Shimadzu UPLC system. […] RMC-7977 and IS (verapamil or terfenadine) were detected by positive electrospray ionization using multiple reaction monitoring (RMC-7977: m/z 865.4/706.4 or m/z 865.3/833.5; verapamil: m/z 455.2/164.9; terfenadine: m/z 472.3/436.4). The lower limit of quantification was 0.5 ng/mL or 2.0 ng/mL for blood, tumor, and other tissue. […]

[3] = test system: Myc protein levels; test: Western blot of Myc in resistant and naive KPC cell lines; assay type: cell-based, murine; settings: 100 nM, 24 hours
Protocol: as §1

[4] = test system: wild type RAS; settings: reference 14; cited from earlier work

CCn1c(-c2cc(N3CCN(C4CC4)CC3)cnc2[C@H](C)OC)c2c3cc(ccc31)-c1csc(n1)C[C@H](NC(=O)[C@H]1[C@@H]3COC[C@@H]31)C(=O)N1CCC[C@H](N1)C(=O)OCC(C)(C)C2 [RMC-7977]
phosphorylation of ERK1/2 (pERK) [1]: reduced phosphorylation
fold lower EC50 in Capan-1 tumors compared to colon ([2]; normal colon): ~22 fold
fold lower EC50 in Capan-1 tumors compared to skin ([2]; normal skin): ~8 fold
Myc protein levels ([3]; two RMC-7977 Naive lines): fully inhibited
Myc protein levels ([3]; two Resistant lines): incompletely reduced
affinity for wild type RAS compared to mutant variants [4]: somewhat reduced affinity
